This is an account of results in patent US12116356B2, “N-heterocyclic five-membered ring-containing capsid protein assembly inhibitor, pharmaceutical composition thereof, and use thereof” (CHIA TAI TIANQING PHARMACEUTICAL GROUP CO., LTD., priority 2018, dated 2024).

Data set [1] can be described thus: Plasma protein binding assay (equilibrium dialysis), human plasma. Type of data set: in vitro ADME. Here is the method: Formulation of plasma sample: 495 μL of blank plasmas of the corresponding species (mouse, rat, dog, monkey, and human) were drawn respectively, and thereto was added 5 μL of the corresponding test compound solution or positive control to give plasma sample solutions having a plasma drug concentration of the compound of 1 μM, and 10 μM, respectively (formulated with acetonitrile).
The pre-treated dialysis membrane was placed in a high-throughput equilibrium dialysis device, and 100 μL of the plasma sample solution and PBS buffer solution were drawn and added respectively to both sides of the dialysis membrane (sample side and buffer side) (n=3). After the equilibration device was sealed with a film, it was incubated at 37° C. overnight (100 rpm). After dialysis equilibrium was reached, 50 μL samples were drawn from the sample side and the buffer side, respectively, and the reaction was terminated by adding ice acetonitrile containing an internal standard.
Sample pre-treatment: To 50 μL of the plasma-side sample was added 450 μL of ice acetonitrile containing an internal standard, and then precipitated. After vortexing for 5 minutes, the sample was centrifugated (12000 rpm, 4° C.) for 10 minutes. 75 μL of the supernatant was pipetted, and 75 μL of ultrapure water was added thereto for dilution and mixed uniformly. 1 μL of the resulting solution was injected for analysis. To 50 μL of the PBS-side sample was added 250 μL of ice acetonitrile with an internal standard, and precipitated. After vortexing for 5 min, the sample was centrifugated (12000 rpm, 4° C.) for 10 min. 75 μL of the supernatant was pipetted, and 75 μL of ultrapure water was added thereto for dilution and mixed uniformly. 2 μL of the resulting solution was injected for analysis.

For data set [2], the system named is rAAV8-1.3HBV virus (adr subtype). The experiment in a line: Antiviral effect evaluation in AAV mouse model. Type of data set: in vivo, C57BL/6 mice. The note with it: 30 mpk intragastric once daily, administration for 24 days. Here is the method:
6-8 week old male C57BL/6 mice were injected with rAAV8-1.3HBV virus (adr subtype) at tail vein at a dose of 1×10^11 vg. Blood was collected from the orbits of the mice on week 2 and 4 after the virus injection. The serum was separated, and the expression levels of HBeAg and HBsAg in the serum and the HBV DNA copy number were detected to evaluate whether the model was successfully established. According to the results of quantitative detection of serological HBeAg, HBsAg and HBV DNA, the mice having HBV DNA expression level greater than 1×10^4 IU/mL, HBeAg expression level greater than 1×10^3 NCU/mL and HBsAg expression level greater than 1×10^3 ng/mL were selected. The mice were grouped into a blank control group, a vehicle control group, and a test substance group. […] During the experiment, blood was collected from the orbits every other week, serum was separated, and the DNA content was detected by fluorescent quantitative PCR method.

Data set [3] is described as follows: In vitro cytotoxicity (CCK-8) in HepG2.2.15 cells. The note with it: human. Format: cell-based. The gist of the method:
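HepG2.2.15 or HepAD38 cells plated at 2*10^5 cells/mL on collagen I-coated wells, grown 24 h, then exposed to compound for 6 days with medium refreshed every 3 days; 0.5% DMSO vehicle control. CCK-8 absorbance read at 450 nm after 1–2 h; inhibition rate and CC50 calculated.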

For another data set, the target named is CYP 2C9 (Homo sapiens (Human), UniProt P11712). The experiment in a line: CYP450 enzyme inhibition study (liver microsomes, subtype IC50). Type of data set: in vitro ADME. The note with it: 30 minutes, read-out: Subtypes IC50 2C9. Here is the method: (§1) 500 μL of a final incubation system contains 50 μL of liver microsomes (protein concentration: 0.2 mg/mL), 1 μL of mixed CYP450 specific substrates (CYP1A2, CYP 2B6, CYP 2C9, CYP2C19, CYP 2D6, and CYP 3A4), 398 μL PBS buffer (PH7.4), 1 μL specific positive inhibitor (positive control group) or the test compound (formulated with acetonitrile), and 50 μL NADPH+MgCl2. Duplicate incubation systems of 0.5 mL each were formulated for each CYP450 subtype. A total volume of 450 μL of a uniformly mixed solution of the substrate and the enzyme was formulated in each tube, and the solution and NADPH were pre-incubated at 37° C. for 5 minutes, respectively. Then 50 μL of the mixed solution of NADPH+MgCl2 was added for reaction. 50 μL of the reaction solution was taken out at 30 minutes, and the reaction was terminated with 300 μL of ice acetonitrile containing an internal standard. In addition, two control groups of 500 μL each without NADPH were prepared in parallel as a negative control group.
Sequence of CYP 2C9 (P11712 whole entry): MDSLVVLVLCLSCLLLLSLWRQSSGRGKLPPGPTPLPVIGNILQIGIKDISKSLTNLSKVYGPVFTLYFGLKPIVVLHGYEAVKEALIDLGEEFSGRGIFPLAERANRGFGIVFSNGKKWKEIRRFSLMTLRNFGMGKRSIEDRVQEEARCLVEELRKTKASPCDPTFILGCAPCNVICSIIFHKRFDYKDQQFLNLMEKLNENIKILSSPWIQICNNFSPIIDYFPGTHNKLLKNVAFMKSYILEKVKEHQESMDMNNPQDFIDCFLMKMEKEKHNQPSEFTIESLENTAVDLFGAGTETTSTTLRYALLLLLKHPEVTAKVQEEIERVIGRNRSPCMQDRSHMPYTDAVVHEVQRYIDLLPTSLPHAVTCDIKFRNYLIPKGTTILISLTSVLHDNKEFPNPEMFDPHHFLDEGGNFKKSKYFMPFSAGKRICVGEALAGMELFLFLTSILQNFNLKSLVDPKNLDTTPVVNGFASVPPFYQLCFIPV
(§2) Sample pre-treatment: To 50 μL of the incubated sample was added 300 μL of ice acetonitrile containing an internal standard, and then precipitated. After vortexing for 5 minutes, the sample was centrifugated (12000 rpm, 4° C.) for 10 minutes. 75 μL of the supernatant was pipetted, and 75 μL of ultrapure water was added thereto for dilution and mixed uniformly. 1 μL of the resulting solution was injected for analysis.
In general terms: Liver microsomes are vesicles of endoplasmic reticulum, rich in cytochrome P450 enzymes.

A further data set deals with CYP 2D6 (Homo sapiens (Human), UniProt P10635). The description is as above. Type of data set: in vitro ADME. The note with it: 30 minutes, read-out: Subtypes IC50 2D6. The method, then:
as §1, §2

The target in the next data set is CYP1A2 (Homo sapiens (Human), UniProt P05177). The description is as above. Format: in vitro ADME. Here is the method:
as §1, §2

In a further data set the target is CYP2C19 (Homo sapiens (Human), UniProt P33261). Described as above. Format: in vitro ADME. Particulars: 30 minutes, read-out: Subtypes IC50 2C19. The method, then: as §1, §2
Sequence of CYP2C19 (P33261 whole entry): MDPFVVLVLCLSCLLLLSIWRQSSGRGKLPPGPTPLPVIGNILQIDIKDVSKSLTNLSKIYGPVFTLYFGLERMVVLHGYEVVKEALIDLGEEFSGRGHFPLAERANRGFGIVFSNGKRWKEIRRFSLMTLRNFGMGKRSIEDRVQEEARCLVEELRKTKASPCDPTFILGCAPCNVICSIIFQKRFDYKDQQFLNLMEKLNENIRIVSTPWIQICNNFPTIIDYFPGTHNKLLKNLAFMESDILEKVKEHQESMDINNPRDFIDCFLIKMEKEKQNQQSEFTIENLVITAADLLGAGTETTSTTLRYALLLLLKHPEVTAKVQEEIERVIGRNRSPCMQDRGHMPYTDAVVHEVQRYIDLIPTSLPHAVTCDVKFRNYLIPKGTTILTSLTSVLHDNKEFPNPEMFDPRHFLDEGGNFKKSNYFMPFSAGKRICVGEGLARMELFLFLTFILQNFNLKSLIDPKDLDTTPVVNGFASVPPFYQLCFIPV
For another data set, the target named is CYP 2B6 (Homo sapiens (Human), UniProt P20813). The description is as above. The note with it: 30 minutes, read-out: Subtypes IC50 2B6. Type of data set: in vitro ADME. Here is the method: as §1, §2
Sequence of CYP 2B6 (P20813 whole entry): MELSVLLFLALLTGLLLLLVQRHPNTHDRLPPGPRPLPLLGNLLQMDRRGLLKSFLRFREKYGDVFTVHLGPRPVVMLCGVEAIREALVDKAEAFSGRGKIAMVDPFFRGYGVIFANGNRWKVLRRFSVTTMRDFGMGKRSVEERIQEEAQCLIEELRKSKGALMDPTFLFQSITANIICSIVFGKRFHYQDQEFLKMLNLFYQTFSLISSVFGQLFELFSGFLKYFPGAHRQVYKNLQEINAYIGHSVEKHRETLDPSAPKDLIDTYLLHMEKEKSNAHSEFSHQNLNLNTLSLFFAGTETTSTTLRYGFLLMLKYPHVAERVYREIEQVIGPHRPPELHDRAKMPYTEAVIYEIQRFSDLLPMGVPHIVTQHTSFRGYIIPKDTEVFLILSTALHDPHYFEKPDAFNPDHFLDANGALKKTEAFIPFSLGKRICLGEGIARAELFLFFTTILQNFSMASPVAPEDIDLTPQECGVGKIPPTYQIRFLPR
In another data set the target is CYP 3A4 (Homo sapiens (Human), UniProt P08684). The description is as above. Format: in vitro ADME. Particulars: 30 minutes, read-out: Subtypes IC50 3A4. The method, then:
as §1, §2

Sequence of CYP 2D6 (P10635 whole entry): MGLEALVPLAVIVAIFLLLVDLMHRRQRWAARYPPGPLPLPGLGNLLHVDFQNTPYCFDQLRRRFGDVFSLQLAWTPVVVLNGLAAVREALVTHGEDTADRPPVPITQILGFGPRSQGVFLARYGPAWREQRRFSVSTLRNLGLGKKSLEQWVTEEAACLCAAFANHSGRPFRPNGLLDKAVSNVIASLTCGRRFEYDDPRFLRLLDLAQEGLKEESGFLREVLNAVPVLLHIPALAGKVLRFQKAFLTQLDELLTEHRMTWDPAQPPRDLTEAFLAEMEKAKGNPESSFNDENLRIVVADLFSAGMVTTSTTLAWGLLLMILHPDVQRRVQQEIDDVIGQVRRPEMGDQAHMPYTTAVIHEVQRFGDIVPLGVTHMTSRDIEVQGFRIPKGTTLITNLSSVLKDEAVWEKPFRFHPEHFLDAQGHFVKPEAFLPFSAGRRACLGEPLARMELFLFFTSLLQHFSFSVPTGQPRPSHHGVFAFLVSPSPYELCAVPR
Sequence of CYP 3A4 (P08684 whole entry): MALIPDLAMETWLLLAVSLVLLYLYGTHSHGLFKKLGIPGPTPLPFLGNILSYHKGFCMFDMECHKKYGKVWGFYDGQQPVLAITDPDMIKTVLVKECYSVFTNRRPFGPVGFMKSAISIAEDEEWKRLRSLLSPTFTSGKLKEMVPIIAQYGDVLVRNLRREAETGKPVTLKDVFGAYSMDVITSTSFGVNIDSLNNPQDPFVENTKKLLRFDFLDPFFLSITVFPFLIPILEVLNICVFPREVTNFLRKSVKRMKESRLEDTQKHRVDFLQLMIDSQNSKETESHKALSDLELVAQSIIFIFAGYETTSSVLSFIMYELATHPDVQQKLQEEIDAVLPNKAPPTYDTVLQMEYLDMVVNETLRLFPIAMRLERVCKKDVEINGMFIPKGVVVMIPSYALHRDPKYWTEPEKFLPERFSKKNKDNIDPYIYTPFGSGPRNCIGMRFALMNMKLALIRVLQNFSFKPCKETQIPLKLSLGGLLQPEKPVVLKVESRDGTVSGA
Sequence of CYP1A2 (P05177 whole entry): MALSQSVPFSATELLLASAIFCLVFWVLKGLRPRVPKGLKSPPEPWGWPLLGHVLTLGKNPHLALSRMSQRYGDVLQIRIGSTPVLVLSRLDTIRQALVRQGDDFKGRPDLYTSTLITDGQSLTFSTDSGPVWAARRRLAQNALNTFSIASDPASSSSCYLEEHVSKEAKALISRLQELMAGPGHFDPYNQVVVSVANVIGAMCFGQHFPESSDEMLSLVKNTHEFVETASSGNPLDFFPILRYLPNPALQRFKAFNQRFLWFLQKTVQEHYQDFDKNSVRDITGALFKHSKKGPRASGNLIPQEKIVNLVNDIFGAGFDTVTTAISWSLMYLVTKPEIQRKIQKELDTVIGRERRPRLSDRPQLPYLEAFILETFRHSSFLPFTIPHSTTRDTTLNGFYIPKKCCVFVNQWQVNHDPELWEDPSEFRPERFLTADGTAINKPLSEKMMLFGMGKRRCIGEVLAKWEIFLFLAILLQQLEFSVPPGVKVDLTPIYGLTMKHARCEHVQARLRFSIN

Consider `Cc1c(C(=O)Nc2ccc(F)c(C#N)c2)c(C)n(C)c1C(=O)C(=O)N[C@@H](C)C(F)(F)F` [Example 12], for which the Binding rate was found to be 94.0% in [1] (1 μM) and 93.7% in [1] (10 μM). Besides, the “Reduction levels (log10) of HBV DNA in serum, Day 7” value in data set [2] is on record as 2.42 log10. Also, the “Reduction levels (log10) of HBV DNA in serum, Day 14” value in data set [2] came to 3.46 log10. In [2], the “Reduction levels (log10) of HBV DNA in serum, Day 21” value is 5.08 log10. The “Reduction levels (log10) of HBV DNA in serum, Day 28” value in data set [2] was found to be 2.48 log10. In addition, in data set [3], the CC50 at 6 days was over 100 µM. For the same compound, the IC50 is 79.7 µM at CYP 2C9; 224 µM at CYP 2D6; 46.4 µM against CYP1A2; 60 µM at CYP2C19; 146 µM at CYP 2B6; over 200 µM at CYP 3A4.
As for `Cc1c(C(=O)Nc2ccc(F)c(C#N)c2)c(C)n(C)c1C(=O)C(=O)NC1(C(F)(F)F)COC1` [Example 25, N-(3-cyano-4-fluorophenyl)-1,2,4-trimethyl-5-(2-oxo-2-((3-(trifluoromethyl)oxetan-3-yl)amino)acetyl)-1H-pyrrole-3-carboxamide], the Binding rate came out at 92.9% in data set [1] (1 μM) and 92.2% in data set [1] (10 μM). Moreover, in data set [2], the “Reduction levels (log10) of HBV DNA in serum, Day 7” value is 1.16 log10. Further, the “Reduction levels (log10) of HBV DNA in serum, Day 14” value in data set [2] was found to be 1.76 log10. The “Reduction levels (log10) of HBV DNA in serum, Day 21” value in data set [2] amounted to 2.89 log10. The “Reduction levels (log10) of HBV DNA in serum, Day 28” value in [2] worked out at 1.28 log10. Also, the CC50 at 6 days in data set [3] is over 100 µM. Besides, the IC50 on CYP 2C9 was 16.6 µM; at CYP 2D6, 120 µM; on CYP1A2 it was 229 µM; at CYP2C19 it was 24.9 µM; at CYP 2B6 it was 61.1 µM; at CYP 3A4, 76 µM.

By CC50 is commonly meant the concentration that lowers cell viability or growth by half. Read a low CC50 as harm at low concentration. The IC50 is the concentration that inhibits the measured activity by half.
